Active and inactive are the calls of the source.
Experiments:
Assay type in all cases: functional
Aurora kinase A = Aurora kinase A (Homo sapiens, UniProt O14965);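 note: value from the Navigating the Kinome kinase panel profiling, panel entry STK6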
[1] = biological target: Fibroblast growth factor receptor 1 (Homo sapiens, UniProt P11362)
[2] = biological target: Serine/threonine-protein kinase Chk1 (Homo sapiens, UniProt O14757);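 note: measured as one member of a kinome-wide kinase profiling panel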
[3] = biological target: 5'-AMP-activated protein kinase catalytic subunit alpha-1 (Homo sapiens, UniProt Q13131)
[4] = biological target: Tyrosine-protein kinase receptor TYRO3 (Homo sapiens, UniProt Q06418);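 note: TYRO3 value obtained as one member of a kinome-wide profiling panel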
[5] = biological target: Dual specificity mitogen-activated protein kinase kinase 2 (Homo sapiens, UniProt P36507); assay: Navigating the Kinome. Panel member name: MAP2K2
[6] = biological target: Mitogen-activated protein kinase 8 (Homo sapiens, UniProt P45983);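 note: value comes from one member of a kinome-wide kinase profiling panel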
[7] = biological target: Leukocyte tyrosine kinase receptor (Homo sapiens, UniProt P29376); assay: Navigating the Kinome. Panel member name: LTK
[8] = biological target: Tyrosine-protein kinase JAK3 (Homo sapiens, UniProt P52333)
[9] = biological target: Proto-oncogene tyrosine-protein kinase receptor Ret (Homo sapiens, UniProt P07949);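 note: measured within a kinome-wide profiling panel, RET as the panel member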
[10] = biological target: Dual specificity protein kinase CLK4 (Homo sapiens, UniProt Q9HAZ1)
Focal adhesion kinase 1 = Focal adhesion kinase 1 (Homo sapiens, UniProt Q05397);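 note: measured as one member of a kinome panel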
[11] = biological target: Platelet-derived growth factor receptor beta (Homo sapiens, UniProt P09619);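 note: value comes from a kinome panel, with PDGFRB tested as one panel member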
[12] = biological target: Serine/threonine-protein kinase pim-1 (Homo sapiens, UniProt P11309)
[13] = biological target: Cyclin-dependent kinase 9 (Homo sapiens, UniProt P50750);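 note: value from the CDK9 entry of a kinome-spanning kinase panel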
[14] = biological target: Cyclin-dependent kinase 8 (Homo sapiens, UniProt P49336); assay: Navigating the Kinome. Panel member name: CDK8
[15] = biological target: Tyrosine-protein kinase JAK2 (Homo sapiens, UniProt O60674);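 note: JAK2 tested as one member of a kinase panel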
[16] = biological target: Hepatocyte growth factor receptor (Homo sapiens, UniProt P08581);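 note: kinase panel profiling across the kinome, with MET as the panel member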
[17] = biological target: Dual specificity tyrosine-phosphorylation-regulated kinase 1A (Homo sapiens, UniProt Q13627);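 note: measured against DYRK1A as one member of a broad kinome profiling panel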
[18] = biological target: Dual specificity mitogen-activated protein kinase kinase 1 (Homo sapiens, UniProt Q02750); assay: Navigating the Kinome. Panel member name: MAP2K1
[19] = biological target: ALK tyrosine kinase receptor (Homo sapiens, UniProt Q9UM73);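 note: ALK tested as one member of a kinase panel screen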
[20] = biological target: Receptor-type tyrosine-protein kinase FLT3 (Homo sapiens, UniProt P36888);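 note: FLT3 was tested as one member of a kinome-wide kinase panel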
[21] = biological target: Vascular endothelial growth factor receptor 1 (Homo sapiens, UniProt P17948);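 note: measured within a kinome-wide profiling panel, FLT1 as the panel member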
[22] = biological target: Glycogen synthase kinase-3 beta (Homo sapiens, UniProt P49841);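 note: value comes from a broad kinome profiling panel, with GSK3B as the panel member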
[23] = biological target: Macrophage colony-stimulating factor 1 receptor (Homo sapiens, UniProt P07333);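 note: value comes from the Navigating the Kinome screening panel, CSF1R member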
[24] = biological target: cAMP-dependent protein kinase catalytic subunit alpha (Homo sapiens, UniProt P17612)
[25] = biological target: Macrophage-stimulating protein receptor (Homo sapiens, UniProt Q04912); assay: Navigating the Kinome. Panel member name: MST1R
Activated CDC42 kinase 1 = Activated CDC42 kinase 1 (Homo sapiens, UniProt Q07912); assay: Navigating the Kinome. Panel member name: ACK1
[26] = biological target: Cyclin-dependent kinase 7 (Homo sapiens, UniProt P50613);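 note: value comes from a kinome-wide kinase profiling panel in which CDK7 is one member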
[27] = biological target: Serine/threonine-protein kinase TAO1 (Homo sapiens, UniProt Q7L7X3)
[28] = biological target: Dual specificity tyrosine-phosphorylation-regulated kinase 1B (Homo sapiens, UniProt Q9Y463); assay: Navigating the Kinome. Panel member name: DYRK1B
[29] = biological target: Calcium/calmodulin-dependent protein kinase type II subunit alpha (Homo sapiens, UniProt Q9UQM7); assay: Navigating the Kinome. Panel member name: CAMK2A
LIM domain kinase 1 = LIM domain kinase 1 (Homo sapiens, UniProt P53667); assay: Navigating the Kinome. Panel member name: LIMK1

Measured: Ki

Chain of 5'-AMP-activated protein kinase catalytic subunit alpha-1 (Q13131 whole entry): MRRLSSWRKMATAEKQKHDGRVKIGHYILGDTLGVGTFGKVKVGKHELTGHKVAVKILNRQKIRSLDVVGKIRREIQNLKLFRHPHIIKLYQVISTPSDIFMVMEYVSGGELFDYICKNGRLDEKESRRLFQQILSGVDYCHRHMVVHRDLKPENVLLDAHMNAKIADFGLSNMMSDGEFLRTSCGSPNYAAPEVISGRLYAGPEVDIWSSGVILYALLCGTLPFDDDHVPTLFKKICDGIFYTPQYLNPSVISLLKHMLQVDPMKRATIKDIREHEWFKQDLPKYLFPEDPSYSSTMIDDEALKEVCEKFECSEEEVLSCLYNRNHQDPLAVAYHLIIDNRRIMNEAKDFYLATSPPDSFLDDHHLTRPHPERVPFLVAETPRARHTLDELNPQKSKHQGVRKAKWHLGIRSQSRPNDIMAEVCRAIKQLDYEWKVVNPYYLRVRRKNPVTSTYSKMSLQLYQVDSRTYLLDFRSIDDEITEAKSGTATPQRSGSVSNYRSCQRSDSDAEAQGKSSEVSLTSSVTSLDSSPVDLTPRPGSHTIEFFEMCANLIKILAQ
Chain of Cyclin-dependent kinase 9 (P50750 whole entry): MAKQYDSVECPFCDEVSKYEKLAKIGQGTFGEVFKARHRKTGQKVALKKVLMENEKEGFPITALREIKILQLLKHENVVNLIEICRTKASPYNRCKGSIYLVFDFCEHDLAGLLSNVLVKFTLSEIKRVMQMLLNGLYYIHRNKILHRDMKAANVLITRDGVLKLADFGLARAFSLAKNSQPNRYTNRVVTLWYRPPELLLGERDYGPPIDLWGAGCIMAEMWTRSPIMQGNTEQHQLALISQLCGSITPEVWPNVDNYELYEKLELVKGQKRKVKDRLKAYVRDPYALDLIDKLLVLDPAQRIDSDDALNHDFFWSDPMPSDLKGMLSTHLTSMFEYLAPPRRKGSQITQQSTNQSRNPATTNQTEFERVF
Chain of Cyclin-dependent kinase 7 (P50613 whole entry): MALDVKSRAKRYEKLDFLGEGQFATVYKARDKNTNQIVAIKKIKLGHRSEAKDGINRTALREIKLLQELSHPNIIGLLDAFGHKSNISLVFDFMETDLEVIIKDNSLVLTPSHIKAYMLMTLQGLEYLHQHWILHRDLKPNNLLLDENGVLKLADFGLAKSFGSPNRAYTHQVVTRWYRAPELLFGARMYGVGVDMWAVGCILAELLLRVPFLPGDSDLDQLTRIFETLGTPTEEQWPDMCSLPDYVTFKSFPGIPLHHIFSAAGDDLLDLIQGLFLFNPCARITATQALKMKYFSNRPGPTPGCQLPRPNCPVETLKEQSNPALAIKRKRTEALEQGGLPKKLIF
Chain of Macrophage colony-stimulating factor 1 receptor (P07333 whole entry): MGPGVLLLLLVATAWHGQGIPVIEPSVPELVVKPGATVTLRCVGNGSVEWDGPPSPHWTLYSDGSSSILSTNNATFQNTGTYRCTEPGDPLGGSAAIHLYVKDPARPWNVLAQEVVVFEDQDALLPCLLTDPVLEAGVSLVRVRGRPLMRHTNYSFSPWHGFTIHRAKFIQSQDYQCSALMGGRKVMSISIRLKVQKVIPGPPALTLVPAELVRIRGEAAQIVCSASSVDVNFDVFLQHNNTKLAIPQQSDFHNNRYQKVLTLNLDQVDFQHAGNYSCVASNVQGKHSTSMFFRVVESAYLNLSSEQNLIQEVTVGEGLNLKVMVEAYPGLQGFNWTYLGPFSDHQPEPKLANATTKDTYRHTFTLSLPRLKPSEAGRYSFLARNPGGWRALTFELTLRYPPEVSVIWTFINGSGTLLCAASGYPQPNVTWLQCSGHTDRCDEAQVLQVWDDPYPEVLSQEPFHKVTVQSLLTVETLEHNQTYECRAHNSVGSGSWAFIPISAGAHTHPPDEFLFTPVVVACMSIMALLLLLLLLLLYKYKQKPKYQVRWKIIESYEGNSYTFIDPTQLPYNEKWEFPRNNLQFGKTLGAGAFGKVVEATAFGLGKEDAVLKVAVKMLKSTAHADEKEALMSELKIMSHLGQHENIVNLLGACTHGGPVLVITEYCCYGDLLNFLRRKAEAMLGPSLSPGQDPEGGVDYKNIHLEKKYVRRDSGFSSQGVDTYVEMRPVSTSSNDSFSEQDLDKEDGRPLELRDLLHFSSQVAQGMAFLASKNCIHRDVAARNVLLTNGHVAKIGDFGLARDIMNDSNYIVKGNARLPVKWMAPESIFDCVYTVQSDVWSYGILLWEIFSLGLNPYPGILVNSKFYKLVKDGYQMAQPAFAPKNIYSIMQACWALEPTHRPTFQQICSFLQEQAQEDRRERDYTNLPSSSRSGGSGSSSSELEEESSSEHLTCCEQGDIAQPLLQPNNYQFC
Chain of Receptor-type tyrosine-protein kinase FLT3 (P36888 whole entry): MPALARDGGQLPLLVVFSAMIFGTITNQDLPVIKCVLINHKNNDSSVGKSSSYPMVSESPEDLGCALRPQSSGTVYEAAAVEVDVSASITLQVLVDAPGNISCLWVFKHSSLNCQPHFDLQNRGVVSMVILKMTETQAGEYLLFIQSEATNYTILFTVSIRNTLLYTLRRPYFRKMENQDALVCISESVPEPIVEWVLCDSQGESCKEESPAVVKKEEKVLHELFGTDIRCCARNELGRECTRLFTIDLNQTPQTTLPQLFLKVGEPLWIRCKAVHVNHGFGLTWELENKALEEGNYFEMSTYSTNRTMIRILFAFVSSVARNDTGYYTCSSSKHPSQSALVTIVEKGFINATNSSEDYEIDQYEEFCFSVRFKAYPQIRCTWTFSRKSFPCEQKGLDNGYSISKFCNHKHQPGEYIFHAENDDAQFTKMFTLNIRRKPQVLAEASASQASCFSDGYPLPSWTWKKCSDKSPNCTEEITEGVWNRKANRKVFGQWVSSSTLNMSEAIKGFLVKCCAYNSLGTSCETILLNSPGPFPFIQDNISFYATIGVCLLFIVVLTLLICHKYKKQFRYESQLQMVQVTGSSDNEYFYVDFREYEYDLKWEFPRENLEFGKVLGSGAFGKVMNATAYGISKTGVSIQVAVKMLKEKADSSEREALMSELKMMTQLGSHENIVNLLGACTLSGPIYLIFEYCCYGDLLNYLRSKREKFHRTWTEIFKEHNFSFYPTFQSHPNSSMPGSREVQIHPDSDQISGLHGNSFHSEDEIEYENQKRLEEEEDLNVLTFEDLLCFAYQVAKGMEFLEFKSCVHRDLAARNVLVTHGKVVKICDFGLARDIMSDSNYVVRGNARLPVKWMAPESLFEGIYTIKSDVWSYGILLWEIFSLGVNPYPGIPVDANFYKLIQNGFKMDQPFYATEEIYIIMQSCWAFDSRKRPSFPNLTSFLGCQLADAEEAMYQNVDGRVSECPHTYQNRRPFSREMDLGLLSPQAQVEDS
Chain of Vascular endothelial growth factor receptor 1 (P17948 whole entry): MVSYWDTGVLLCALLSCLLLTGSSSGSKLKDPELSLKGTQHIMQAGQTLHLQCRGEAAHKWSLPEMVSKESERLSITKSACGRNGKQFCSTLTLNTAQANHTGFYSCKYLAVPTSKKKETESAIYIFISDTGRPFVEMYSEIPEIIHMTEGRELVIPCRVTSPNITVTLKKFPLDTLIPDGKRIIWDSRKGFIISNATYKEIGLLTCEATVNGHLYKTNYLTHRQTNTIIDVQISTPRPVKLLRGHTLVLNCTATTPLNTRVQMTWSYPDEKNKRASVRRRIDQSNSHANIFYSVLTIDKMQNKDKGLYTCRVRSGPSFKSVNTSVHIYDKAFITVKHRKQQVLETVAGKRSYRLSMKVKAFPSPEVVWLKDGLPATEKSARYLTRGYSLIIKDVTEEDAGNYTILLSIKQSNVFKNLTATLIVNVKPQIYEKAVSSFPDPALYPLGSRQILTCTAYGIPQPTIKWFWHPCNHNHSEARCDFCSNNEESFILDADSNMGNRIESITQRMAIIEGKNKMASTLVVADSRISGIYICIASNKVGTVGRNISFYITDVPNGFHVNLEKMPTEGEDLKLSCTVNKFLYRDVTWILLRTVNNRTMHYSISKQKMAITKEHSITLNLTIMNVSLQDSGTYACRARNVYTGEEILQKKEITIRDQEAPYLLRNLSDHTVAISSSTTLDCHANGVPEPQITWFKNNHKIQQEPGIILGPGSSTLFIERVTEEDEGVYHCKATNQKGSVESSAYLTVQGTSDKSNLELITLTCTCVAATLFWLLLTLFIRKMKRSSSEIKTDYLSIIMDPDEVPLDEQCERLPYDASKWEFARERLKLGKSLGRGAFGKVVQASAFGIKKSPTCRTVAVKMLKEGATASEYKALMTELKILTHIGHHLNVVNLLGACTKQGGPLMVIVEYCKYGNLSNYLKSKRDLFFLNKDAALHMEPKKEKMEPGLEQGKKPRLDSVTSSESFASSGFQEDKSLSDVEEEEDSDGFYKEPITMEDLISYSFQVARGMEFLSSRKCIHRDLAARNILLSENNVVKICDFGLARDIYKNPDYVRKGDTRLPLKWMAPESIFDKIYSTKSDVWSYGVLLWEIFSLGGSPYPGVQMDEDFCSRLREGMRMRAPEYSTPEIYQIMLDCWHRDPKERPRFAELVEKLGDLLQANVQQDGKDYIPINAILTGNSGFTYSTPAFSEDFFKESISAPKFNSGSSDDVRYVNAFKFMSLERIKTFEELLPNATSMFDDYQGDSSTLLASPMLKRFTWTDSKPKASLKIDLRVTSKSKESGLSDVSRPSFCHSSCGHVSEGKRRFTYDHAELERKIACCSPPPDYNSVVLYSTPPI
Chain of Dual specificity mitogen-activated protein kinase kinase 2 (P36507 whole entry): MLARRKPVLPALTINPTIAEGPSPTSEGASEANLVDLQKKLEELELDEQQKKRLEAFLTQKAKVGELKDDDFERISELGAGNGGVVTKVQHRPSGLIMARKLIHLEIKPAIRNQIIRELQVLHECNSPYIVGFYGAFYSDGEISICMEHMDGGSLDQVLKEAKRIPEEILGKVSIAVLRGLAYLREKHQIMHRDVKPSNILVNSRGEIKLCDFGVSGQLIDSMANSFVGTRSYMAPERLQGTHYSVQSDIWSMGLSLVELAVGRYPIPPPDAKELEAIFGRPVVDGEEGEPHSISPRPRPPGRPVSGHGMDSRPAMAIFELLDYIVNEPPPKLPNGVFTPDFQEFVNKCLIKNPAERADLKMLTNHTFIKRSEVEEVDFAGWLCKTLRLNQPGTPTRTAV

CC(=O)Nc1ccc(-n2nc3ccc(N)nc3n2)cc1
active: Aurora kinase A 1580 nM | [1] 1260 nM | [2] 794 nM | [3] 1260 nM | [4] 1260 nM | [5] 1580 nM | [6] 2510 nM | [7] 794 nM | [8] 2000 nM | [9] 1580 nM | [10] 794 nM | Focal adhesion kinase 1 5010 nM | [11] 2000 nM | [12] 3980 nM | [13] 1000 nM | [14] 2510 nM | [15] 2000 nM | [16] 1000 nM | [17] 1000 nM | [18] 2510 nM | [19] 2000 nM | [20] 2000 nM | [21] 2510 nM | [22] 1260 nM | [23] 2000 nM | [24] 1260 nM | [25] 2510 nM | Activated CDC42 kinase 1 1000 nM | [26] 2510 nM | [27] 5010 nM | [28] 1260 nM | [29] 1260 nM | LIM domain kinase 1 1260 nM
